This data set is described as follows: Human HepG2 cell viability assay in 384 well format. On the set-up: dose 125 nL, time 70.5 hour; cytotoxicity at 70.5 h: concentration not given beside the values. The following applies: HepG2 cells, read-out: Inhibition. Format: toxicity, cell-based.

Turning to `N#Cc1c2n(c3c(=O)[nH]cnc13)CCCC2`, the cytotoxicity at 70.5 h is -6.51%.

For the compound `CNC(=O)CCN(C)c1nc(-c2ccncc2)nc2c1CCNC2`, the cytotoxicity at 70.5 h is -13.1%.

For the compound `Nc1nnc(CCCNc2ncnc3c2CCN(C(=O)C2CC2)C3)s1`, the cytotoxicity at 70.5 h is -12%.

As for `CCCc1nc(C(=O)NCCCn2nnc3ccccc32)cs1`, the cytotoxicity at 70.5 h was -8.53%.

Consider `O=C(C1CNCCN1C(=O)CCOc1ccccc1)N1CCCC1` (configuration not stated), for which the cytotoxicity at 70.5 h is -1.81%.

With `Cc1cnn(CCCn2c(C)cc(C(F)(F)F)cc2=O)c1`, the cytotoxicity at 70.5 h is -9.21%.

Take `CCn1ccc(CN(C)C(=O)CSc2nnc(N)s2)n1`: the cytotoxicity at 70.5 h was -2.09%.

With `Cc1nn(C)cc1-c1ccnc(N(C)Cc2noc(C(C)C)n2)n1`, the cytotoxicity at 70.5 h was -2.05%.

With `CCOC(=O)N[C@H]1C[C@@H](C(=O)NCCc2cccc(Cl)c2)N(C)C1`, the cytotoxicity at 70.5 h is -23.6%.

For the compound `CCCc1ccc(CN2CCN(C(=O)C(C)C)[C@@H]3CS(=O)(=O)C[C@@H]32)o1`, the cytotoxicity at 70.5 h is -6.33%.

For `COc1ccc(-c2cc(-c3nc(CN4CCN(C)CC4)no3)[nH]n2)cc1`, the cytotoxicity at 70.5 h is -5.68%.

As for `Cc1nonc1C(=O)N1CC[C@@]2(O)CCN(C3CCCCC3)C[C@H]2C1`, the cytotoxicity at 70.5 h is -9.95%.

Turning to `CCN1CC(C(=O)NCc2nc(C3CCCCC3)no2)CC1=O` (configuration not stated), the cytotoxicity at 70.5 h is 5.22%.

As for `O=C(Nc1ccccc1OCCc1ccccn1)N1CC[C@@H](O)C1`, the cytotoxicity at 70.5 h is -31%.

`CC(C)n1ccnc1C1CCCN(c2cc(C(=O)NC3CC3)ccn2)C1` (configuration not stated): the cytotoxicity at 70.5 h was found to be 12.2%.

As for `CC(C)c1nc(-c2ccc(=O)[nH]n2)n(-c2ccc3c(c2)OCO3)n1`, the cytotoxicity at 70.5 h was -10.3%.

On to `CNc1ncc(C(=O)N2CCC(c3ccccc3C(=O)O)C2)cn1` (configuration not stated), for which the cytotoxicity at 70.5 h is -5.85%.

`CC(C)(C)SCCN1CC(=O)N2CC[C@@H](O)C[C@H]2C1=O`: the cytotoxicity at 70.5 h is -9.74%.

Consider `CC(c1ccc(-c2cnc(N)nc2)cc1)N1CCOCC1` (configuration not stated), for which the cytotoxicity at 70.5 h was -3.76%.

Consider `CN(C)C(=O)CN1CCN(c2ncccn2)[C@@H]2CS(=O)(=O)C[C@@H]21`, for which the cytotoxicity at 70.5 h is -3.2%.

Consider `Cc1ccc(C)c(NC(=O)N2CCC3(CC2)NC(=O)CC3C(=O)O)c1` (configuration not stated), for which the cytotoxicity at 70.5 h is -2.48%.

As to `Cc1ccc(Oc2ncccc2CNC2CCCCC2)cn1`, the cytotoxicity at 70.5 h was -5.62%.

As to `Cc1cc(C)n(CC(C)NCCN2CCc3ccccc32)n1` (configuration not stated), the cytotoxicity at 70.5 h was -3.59%.

In the case of `CN(Cc1cc(C(C)(C)C)n[nH]1)C(=O)c1cn2ccsc2n1`, the cytotoxicity at 70.5 h is -2.6%.

As for `CCN(Cc1ccc(C)o1)C(=O)C(C)n1ccnc1C(C)C` (configuration not stated), the cytotoxicity at 70.5 h was -16.9%.

For `O=C1CN(CCCNS(=O)(=O)c2cccc(C(=O)NC3CC3)c2)CCN1`, the cytotoxicity at 70.5 h was -5.93%.

In the case of `CCc1nc2c(c(N3CCOCC3)n1)CCN(C(=O)N1CCCC1)CC2`, the cytotoxicity at 70.5 h was -6.31%.

On to `CCCN1CCC(CC(=O)N[C@H](C(=O)O)c2cccc(F)c2F)CC1`, for which the cytotoxicity at 70.5 h is -8.2%.

Regarding `O=C(NCC(F)(F)C(F)F)c1cccnc1`, the cytotoxicity at 70.5 h was -3.25%.

Take `CN(C)C(=O)c1nc(CN2C(=O)OC[C@@H]2c2ccccc2)no1`: the cytotoxicity at 70.5 h was determined as 15.9%.

As to `Cc1cccnc1N1CCN(C(=O)CCc2ccccn2)CC1`, the cytotoxicity at 70.5 h turned out to be 20.1%.

On to `Cc1nc(C(=O)N2CCC(c3nccn3Cc3ccncc3)CC2)cs1`, for which the cytotoxicity at 70.5 h is -5.72%.

For the compound `CCc1cc(NCc2cc3n(n2)CCCN(S(C)(=O)=O)C3)nc(C)n1`, the cytotoxicity at 70.5 h was -6.87%.

As for `COc1ccc(F)cc1C(C(=O)O)N1CCCN(C2CCCC2)CC1` (configuration not stated), the cytotoxicity at 70.5 h was -5.48%.

As to `COc1ccnc(CNc2nc(C)nc3ccsc23)c1`, the cytotoxicity at 70.5 h was 3.18%.

`CC(C)c1ocnc1C(=O)NC(c1nnc2n1CCNCC2)C(C)C` (configuration not stated): the cytotoxicity at 70.5 h is -16.6%.

Take `Cn1ncc2c(N3CCC(CCO)CC3)nc(C(C)(C)C)nc21`: the cytotoxicity at 70.5 h is -2.67%.

Consider `CSc1ccccc1C(C(=O)O)N(C)CC1CCOCC1` (configuration not stated), for which the cytotoxicity at 70.5 h turned out to be 3.4%.

Consider `Cc1cnc2c(C(=O)N3CCCC(OCc4ccccn4)C3)cnn2c1` (configuration not stated), for which the cytotoxicity at 70.5 h is -7.53%.

For the compound `CC1CCCN1Cc1ccccc1-c1nc(C(C)(C)C)cc(=O)[nH]1` (configuration not stated), the cytotoxicity at 70.5 h was 31.4%.

Consider `Cc1cc(N(C)Cc2cc(C(C)(C)C)n[nH]2)nc(-c2cccnc2)n1`, for which the cytotoxicity at 70.5 h was 41.6%.

With `O=C1CCCN1CCCNCc1cc(O)c2cccc(Cl)c2n1`, the cytotoxicity at 70.5 h stood at 21%.

With `O=C(C(O)c1ccccc1Cl)N1CCCN(Cc2cccnc2)CC1` (configuration not stated), the cytotoxicity at 70.5 h is -4.87%.

In the case of `O=C(O)c1cccnc1CN1CCCC1CCc1ccccc1` (configuration not stated), the cytotoxicity at 70.5 h is -14.9%.

As for `Cc1cc(C)cc(CN2CCN(Cc3cccc(CCN)c3)CC2=O)c1`, the cytotoxicity at 70.5 h was -10.8%.

As for `CCOc1ccc(Cl)cc1C(C(=O)O)N1CCC(CO)CC1` (configuration not stated), the cytotoxicity at 70.5 h was found to be 0.285%.

In the case of `Cc1c[nH]c(CN2CCOC(c3ccc(Cl)c(Cl)c3)C2)c(C)c1=O` (configuration not stated), the cytotoxicity at 70.5 h amounted to 5.88%.

Take `O=C1CCCN1CCC1CCN(C2CCCNC2)CC1` (configuration not stated): the cytotoxicity at 70.5 h is -1.85%.

As for `COc1ccc(NC(=O)N2CCOCC(CN(C)C)C2)c(C)c1` (configuration not stated), the cytotoxicity at 70.5 h worked out at 17.5%.

With `CN(Cc1ccno1)c1nc(C2CCCC2)nc2c1cnn2C`, the cytotoxicity at 70.5 h was -2.09%.

As for `CCn1ncc2[nH]c(-c3ccc(OC)c(COC)c3)nc21`, the cytotoxicity at 70.5 h is -6.61%.

Turning to `CCCN(CCO)C(=O)C1CCC(=O)N(Cc2ccc(Cl)cc2)C1` (configuration not stated), the cytotoxicity at 70.5 h was -0.953%.

For the compound `Cc1nc(N)nc(C)c1CC(=O)N1CCCCC1c1cccc(F)c1` (configuration not stated), the cytotoxicity at 70.5 h is -8.87%.

On to `O=C(C1CC2(CCNCC2)CN1)N1CCN(c2ccccc2)CC1` (configuration not stated), for which the cytotoxicity at 70.5 h came out at 14.5%.

For the compound `CC(=O)N1CCc2[nH]cnc2C12CCN(CC1CCOC1)CC2` (configuration not stated), the cytotoxicity at 70.5 h is -5.5%.

Turning to `Cn1cnnc1SCC(=O)N1C[C@H]2CC[C@@H]1CN(Cc1cccnc1)C2`, the cytotoxicity at 70.5 h was -3.64%.

`CCCc1cc(C(=O)N2CCC3(CCCNC3=O)C2)cs1` (configuration not stated): the cytotoxicity at 70.5 h was -0.581%.

In the case of `O=C(c1cccnc1O)N1CCOC(Cc2cccc(C(F)(F)F)c2)C1` (configuration not stated), the cytotoxicity at 70.5 h was -7%.

In the case of `O=C(Cc1cccs1)N1CCCC(CNS(=O)(=O)Cc2ccccc2)C1` (configuration not stated), the cytotoxicity at 70.5 h is -5.58%.

Regarding `COc1ccccc1OCc1cc(C(=O)N2[C@H](C)CC[C@@H]2C)n[nH]1`, the cytotoxicity at 70.5 h is -6.18%.

For the compound `CCS(=O)(=O)N1CCCC(c2nccn2Cc2cccnc2)C1` (configuration not stated), the cytotoxicity at 70.5 h was -7.4%.

As to `O=C(Cc1cccnc1)N1C[C@@H]2CC[C@H](C1)N(Cc1ccccc1)C2=O`, the cytotoxicity at 70.5 h was -7.37%.

Turning to `CCc1nc2c(c(NCc3cc(-c4cccnc4)no3)n1)CCNCC2`, the cytotoxicity at 70.5 h turned out to be 7.07%.

Turning to `O=C(O)Cc1cccc(-n2ccnc2-c2ccc(Cl)s2)c1`, the cytotoxicity at 70.5 h was -4.96%.

`CC(=O)Nc1ccc(CNC(=O)CNCc2snnc2C)cc1`: the cytotoxicity at 70.5 h was 15.4%.

Turning to `COCC1(CNc2cc(C(C)C)nc(N)n2)CC1`, the cytotoxicity at 70.5 h was determined as 2.2%.

Turning to `COc1ccc(CCN2CCCC(CN(C)Cc3[nH]cnc3C)C2)cc1` (configuration not stated), the cytotoxicity at 70.5 h is 1.62%.

In the case of `CN(CC1CCCCO1)S(=O)(=O)c1cccc(C(=O)N2CCOCC2)c1` (configuration not stated), the cytotoxicity at 70.5 h was -10.5%.

With `C=C(C)COc1ccccc1CN1CCC(NC(C)=O)CC1`, the cytotoxicity at 70.5 h was determined as 25.2%.

With `Cc1nn(C)c(C)c1-c1ccnc(N(C)Cc2nc(C(C)C)no2)n1`, the cytotoxicity at 70.5 h amounted to 3.94%.

As for `CNc1nc(N2CCN(C3CCCCC3)C(CCO)C2)nc2c1CCC2` (configuration not stated), the cytotoxicity at 70.5 h is -3.63%.

Regarding `CCN(Cc1ccncc1)c1nc(C)nc2oc(C)nc12`, the cytotoxicity at 70.5 h was -5.52%.

Turning to `CCc1n[nH]c(C(=O)N2CCN(c3ccc4ccccc4c3)CC2)c1C`, the cytotoxicity at 70.5 h was -6.66%.

For the compound `CCc1[nH]c2c(CNc3cncc(C(=O)N(C)C)n3)cc(F)cc2c1C`, the cytotoxicity at 70.5 h was determined as 4.01%.

For the compound `COc1ccc(Cc2ncc3c(n2)CN(C(=O)C2COCCO2)C3)cc1` (configuration not stated), the cytotoxicity at 70.5 h was -3.32%.

As for `CC(C)=CCN1C[C@H]2CC[C@@H]1CN(S(=O)(=O)c1cccnc1)C2`, the cytotoxicity at 70.5 h came to 6.15%.

Turning to `CCn1ccnc1CN(C)c1cc(C2CC2)ncn1`, the cytotoxicity at 70.5 h was -5.12%.

Regarding `N[C@H]1CN(C(=O)c2ccccc2Oc2ccccc2)C[C@@H]1C1CC1`, the cytotoxicity at 70.5 h was -9.43%.

In the case of `CCN1CCC(CC(=O)NCCc2nc(C)c(Cl)s2)CC1`, the cytotoxicity at 70.5 h was -6.45%.

In the case of `CCN(CC)C(=O)C1CCCN(CC(=O)Nc2c(C)nn(CC)c2C)C1` (configuration not stated), the cytotoxicity at 70.5 h amounted to 22.3%.

As to `CCCNc1ncc(CN2CCC3(CCNC(=O)CC3)CC2)cn1`, the cytotoxicity at 70.5 h is -3.92%.

For the compound `Cc1ccccc1CN(CCN(C)C)C(=O)c1ccc2nccn2c1`, the cytotoxicity at 70.5 h came to 0.498%.

On to `O=C(c1coc(COc2ccccc2F)n1)N1CCC[C@H]1CO`, for which the cytotoxicity at 70.5 h was -2.42%.

In the case of `CCc1ncc(C(=O)N(C)CC2Cc3ccccc3O2)cn1` (configuration not stated), the cytotoxicity at 70.5 h amounted to 25.4%.

With `CC(C)c1cc(C(=O)N2CCN(c3ccncc3)CC2)n(C)n1`, the cytotoxicity at 70.5 h is -11.9%.

Consider `CC(C)n1cnnc1CN(C)CC1CCCNC1` (configuration not stated), for which the cytotoxicity at 70.5 h was -5.56%.

Consider `CN1C(=O)[C@H]2CC[C@@H]1CN(C(=O)c1sccc1S(N)(=O)=O)C2`, for which the cytotoxicity at 70.5 h is -4.92%.

`CC(C)CCC(=O)N1CCC(c2nnc(CN(C)CCO)n2C)CC1`: the cytotoxicity at 70.5 h is -2.45%.

Consider `Cc1c(NC(=O)NC2CN3CCC2CC3)cccc1C(=O)N1CCCC1` (configuration not stated), for which the cytotoxicity at 70.5 h is 37.5%.

Turning to `CCOc1ccccc1OCCN(C)Cc1ncnn1CC`, the cytotoxicity at 70.5 h is -6.09%.

As to `Cc1cc(N2CCCC(O)(CN(C)C)CC2)nc(-c2ccccc2)n1` (configuration not stated), the cytotoxicity at 70.5 h is -4.65%.

As to `CCc1cc(CN2C[C@H]3CC[C@@H]2CN(C2Cc4ccccc4C2)C3)on1`, the cytotoxicity at 70.5 h was -2.96%.

In the case of `O=C(NCc1cc2n(n1)CCCNC2)c1cn2cc(Cl)ccc2n1`, the cytotoxicity at 70.5 h was -2.1%.

For `CSCCCN1CCn2nc(CNC(=O)N(C)C)cc2C1`, the cytotoxicity at 70.5 h was determined as 0.863%.

On to `CCOCCn1c(=O)[nH]c2cc(C(=O)N(C)Cc3ccno3)ccc21`, for which the cytotoxicity at 70.5 h is -1.24%.

On to `O=C(O)[C@@H]1CN(C(=O)CC2CCCC2)C[C@H]1c1ccc(F)cc1`, for which the cytotoxicity at 70.5 h is -6.35%.

With `O=C(c1ccc2ccccc2c1)C1CCCN(C(=O)Cn2cncn2)C1` (configuration not stated), the cytotoxicity at 70.5 h was -1.71%.
